Data set [1] is described as follows: Long term stability: acid stability (2M HCl) at ambient temperature. The data set is classed as physicochemical. The following applies: 2M HCl, dark, ambient, up to 14 days. Here is the method:
(§1) Osanetant p-toluenesulfonic acid Form 1 and osanetant benzenesulfonic acid Form 1 were tested for long-term stability across a number of different conditions, as detailed below.
Acid Stability at Ambient Temperature-Osanetant p-toluenesulfonic acid Form 1 and osanetant benzenesulfonic acid Form 1 were prepared at an osanetant content 10 times the normal working concentration then added to HPLC vials containing 2M HCl and stored in the dark at ambient laboratory conditions. Samples were diluted to 2 mg/mL for analysis and were taken after T=1, 2, 4, 7, and 14 days storage. […] The purity of the resulting material is described in Table 42: […]

The nature of data set [2]: Long term stability: oxidation (6% H2O2) at 60° C. The data set is classed as physicochemical. The following applies: 6% H2O2, 60° C., up to 14 days. As to the method: as §1
Oxidation at 60° C.—Osanetant p-toluenesulfonic acid Form 1 and osanetant benzenesulfonic acid Form 1 were prepared at an osanetant content 10 times the normal working concentration then added to HPLC vials containing 6% H2O2 and stored in a darkened oven at 60° C. Samples were diluted to 2 mg/mL for analysis and were taken after T=1, 2, 4, 7, and 14 days storage. […] The purity of the resulting material is described in Table 47: […]

A short description of data set [3]: Long term stability: oxidation (6% H2O2) at ambient temperature. In kind it is physicochemical. The following applies: 6% H2O2, dark, ambient, up to 14 days. Here is the method: as §1
Oxidation at Ambient Temperature-Osanetant p-toluenesulfonic acid Form 1 and osanetant benzenesulfonic acid Form 1 were prepared at an osanetant content 10 times the normal working concentration then added to HPLC vials containing 6% H2O2 and stored in the dark at ambient laboratory conditions. Samples were diluted to 2 mg/mL for analysis and were taken after T=1, 2, 4, 7, and 14 days storage. […] The purity of the resulting material is described in Table 46: […]

Data set [4] in a line: Long term stability: base (2M NaOH) at ambient temperature. The data set is classed as physicochemical. Conditions: 2M NaOH, dark, ambient, up to 14 days. Here is the method: as §1
Base at Ambient Temperature—Osanetant p-toluenesulfonic acid Form 1 and osanetant benzenesulfonic acid Form 1 were prepared at an osanetant content 10 times the normal working concentration then added to HPLC vials containing 2M NaOH and stored in the dark at ambient laboratory conditions. Samples were diluted to 2 mg/mL for analysis and were taken after T=1, 2, 4, 7, and 14 days storage. […] The purity of the resulting material is described in Table 44: […]

Data set [5] in a line: Long term stability: base (2M NaOH) at 60° C. The data set is classed as physicochemical. Conditions: 2M NaOH, 60° C., up to 14 days. Here is the method:
as §1
Base at 60° C.—Osanetant p-toluenesulfonic acid Form 1 and osanetant benzenesulfonic acid Form 1 were prepared at an osanetant content 10 times the normal working concentration then added to HPLC vials containing 2M NaOH and stored in a darkened oven at 60° C. Samples were diluted to 2 mg/mL for analysis and were taken after T=1, 2, 4, 7, and 14 days storage. […] The purity of the resulting material is described in Table 45: […]

The nature of data set [6]: Salt screen: XRPD of isolated solids after drying at 40° C. and at 40° C./75% RH. The data set is classed as physicochemical. Conditions: for XRPD after drying at 40° C./75% RH: after 40° C. drying, dried at 40° C./75% RH for about 24 h, label = form after 40° C. drying; for XRPD after drying at 40° C.: isolated solids dried at 40° C. for about 24 h, label = wet form. As to the method:
To approximately 20 mg of amorphous lyophilized osanetant was added 0.3 mL of solvent for liquid counterion experiments. 0.2 mL of solvent was employed for solid counterion experiments. […] To the stirring mixture was then added 1.05 mol eq. of the appropriate counterion. Where solid counterions were used, the vial which contained the counterion was washed in to the osanetant containing vial with 0.1 mL of the appropriate solvent. Additional solvent was added where necessary. The experiments were thermally cycled as follows: heated from 25 to 40° C. at a rate of 0.1° C./min; 1 h at 40° C.; Cool to 5° C. at a rate of 0.1° C.; 1 h at 5° C.; 40° C. at a rate of 0.1° C./min; […] The crystallization experiments were thermally cycled overnight, then slurries were isolated by centrifugation. XRPD analysis was carried out on any isolated solids or gums. The XRPD plate, and the isolated solids, were then dried at 40° C. for about 24 h, and XRPD analysis was repeated. The XRPD plate was then dried at 40° C./75% RH for about 24 h and XRPD analysis was again repeated. All other samples were allowed to evaporated at ambient temperature and pressure.

A short description of data set [7]: Long term stability: thermal stability of solids at 60° C. The data set is classed as physicochemical. The following applies: solids, darkened oven at 60° C., up to 14 days. Here is the method:
as §1
Thermal stability of solids at 60° C.—Osanetant p-toluenesulfonic acid Form 1 and osanetant benzenesulfonic acid Form 1 were stored in a darkened oven at 60° C. in glass vials. Samples were taken after T=1, 2, 4, 7, and 14 days storage. […] The purity of the resulting material is described in Table 41: […]

Data set [8] in a line: Solid form stability observations (scale up / polymorph work: drying, ambient conditions, aqueous media). In kind it is physicochemical. The following applies: for form stability / re-hydration under ambient conditions: ambient conditions / room temperature and pressure. Here is the method:
Two anhydrous forms of the osanetant p-toluenesulfonic acid were synthesized. […] Form 6, described below, was a stable anhydrous form, but hydrated in water and aqueous solvent mixtures.
Advantageously, Form 1 (hydrate) and Form 6 (anhydrous) were stable on drying. Form 1 re-hydrated at room temperature and pressure after KF analysis, when it was heated in an oven to remove the water.
The experiment was cooled to 5° C. at a rate of 0.1° C./min and stirred at 5° C. for 18 h. The slurry was isolated be Buchner filtration: 42.5 mm Ø grade 1 Whatman filter paper; fast Filtration (<30 s); the cake was washed with 1 mL of ethyl acetate; the isolated solids were dried at 40° C. under vacuum for 72 h. […]

Data set [9] in a line: Comparative studies: 7-day stability. In kind it is physicochemical. Conditions: for HPLC Impurity Content: 7 Day Stability. Here is the method: Osanetant p-toluenesulfonic acid Form 1, osanetant benzene sulfonic acid Form 3, osanetant naphthalene-2-sulfonic acid Form 3, and osanetant phosphoric acid Form 7 were compared. Osanetant phosphoric acid Form 7 was obtained when preparation of osanetant phosphoric acid Form 4 was repeated and found to be not reproducible, and Form 7 was determined to be a mixture of hydrates).
Thus, osanetant benzene sulfonic acid salt Form 1 and osanetant p-toluene sulfonic acid salt Form 1 were identified as advantageous salts.

A short description of data set [10]: Thermodynamic solubility in water and pH buffers. The following applies: for Concentration: 24 h Solubility at 37° C.

Entries after “also recorded” stand apart in the source; their conditions may differ. Marks after values point to notes of the source that are not given here.

In the case of `CC(=O)N(C)C1(c2ccccc2)CCN(CCC[C@]2(c3ccc(Cl)c(Cl)c3)CCCN(C(=O)c3ccccc3)C2)CC1.O=S(=O)(O)c1ccccc1` [osanetant benzenesulfonic acid Form 1, (R)-N-(1-(3-(1-benzoyl-3-(3,4-dichlorophenyl)piperidin-3-yl)propyl)-4-phenylpiperidin-4-yl)-N-methylacetamide benzenesulfonic acid], the “degradation on storage (purity)” value in [1], in data set [2], in [3], in [4], in data set [5] and in data set [7] was “lack of degradation” in each case. Besides, the “XRPD after drying at 40° C./75% RH” value in data set [6] is given as “retained; also recorded: stable; also recorded: Form 1”. In addition, the “XRPD after drying at 40° C.” value in [6] is recorded as “Form 1”.

In the case of `CC(=O)N(C)C1(c2ccccc2)CCN(CCC[C@]2(c3ccc(Cl)c(Cl)c3)CCCN(C(=O)c3ccccc3)C2)CC1.Cc1ccc(S(=O)(=O)O)cc1` [osanetant p-toluenesulfonic acid Form 5], the “form stability / re-hydration under ambient conditions” value in data set [8] was “rehydrates to Form 1; also recorded: re-hydrated to Form 1; also recorded: hydrated at ambient conditions to Form 1”.

Turning to `CC(=O)N(C)C1(c2ccccc2)CCN(CCC[C@]2(c3ccc(Cl)c(Cl)c3)CCCN(C(=O)c3ccccc3)C2)CC1.Cc1ccc(S(=O)(=O)O)cc1` [osanetant p-toluenesulfonic acid Form 6, (R)-N-(1-(3-(1-benzoyl-3-(3,4-dichlorophenyl)piperidin-3-yl)propyl)-4-phenylpiperidin-4-yl)-N-methylacetamide p-toluenesulfonic acid], in data set [8], the “hydration / form conversion in water and aqueous solvent mixtures” value is recorded as “hydrated”; the “form stability / re-hydration under ambient conditions” value is “stable”. The form on drying entry in [8] (drying (40° C. under vacuum where stated)) is on record as “stable”.

Consider `CC(=O)N(C)C1(c2ccccc2)CCN(CCC[C@]2(c3ccc(Cl)c(Cl)c3)CCCN(C(=O)c3ccccc3)C2)CC1.O=P(O)(O)O` [osanetant phosphoric acid Form 7], for which the solid chemical stability result in data set [9] (7-day stability results, overall) was “Good and best chemical stability”. Also, the “solid form on 7-day stability” value in data set [9] (7 days, elevated temperature where stated) is given as “loss in crystallinity at elevated temperature”. Also, the disproportionation in buffer result in [10] (pH 6.8 buffer) is recorded as “Disproportionation was observed”.

`CC(=O)N(C)C1(c2ccccc2)CCN(CCC[C@]2(c3ccc(Cl)c(Cl)c3)CCCN(C(=O)c3ccccc3)C2)CC1.O=S(=O)(O)O` [osanetant sulfuric acid Form 2, (R)-N-(1-(3-(1-benzoyl-3-(3,4-dichlorophenyl)piperidin-3-yl)propyl)-4-phenylpiperidin-4-yl)-N-methylacetamide sulfuric acid]: the “XRPD after drying at 40° C./75% RH” value in [6] is on record as “Form 3*”.

For the molecule `CC(=O)N(C)C1(c2ccccc2)CCN(CCC[C@]2(c3ccc(Cl)c(Cl)c3)CCCN(C(=O)c3ccccc3)C2)CC1.Cc1ccc(S(=O)(=O)O)cc1` [pTSA Form 6], the “HPLC Impurity Content” value in data set [9] (40° C./75% RH) is 0.11 % w/w; in data set [9] (80° C.), 0.88 % w/w; in data set [9] (Ambient Light), 0.11 % w/w. Besides, the Concentration is 45800 ng/mL in [10] (pH 1.2), 63000 ng/mL in data set [10] (pH 4.5) and 35600 ng/mL in data set [10] (pH 6.8).

For the molecule “(R)-N-(1-(3-(1-benzoyl-3-(3,4-dichlorophenyl)piperidin-3-yl)propyl)-4-phenylpiperidin-4-yl)-N-methylacetamide naphthalene-2-sulfonic acid [osanetant naphthalene-2-sulfonic acid Form 1]”, in [6], the “XRPD after drying at 40° C./75% RH” value is “retained; also recorded: stable; also recorded: Form 1” and the “XRPD after drying at 40° C.” value is “retained; also recorded: Form 1”.

Consider “(R)-N-(1-(3-(1-benzoyl-3-(3,4-dichlorophenyl)piperidin-3-yl)propyl)-4-phenylpiperidin-4-yl)-N-methylacetamide naphthalene-2-sulfonic acid [osanetant naphthalene-2-sulfonic acid Form 2]”, for which, in data set [6], the “XRPD after drying at 40° C./75% RH” value is reported as “retained; also recorded: stable; also recorded: Form 2*” and the “XRPD after drying at 40° C.” value was “retained; also recorded: Form 2*”.

As to “(R)-N-(1-(3-(1-benzoyl-3-(3,4-dichlorophenyl)piperidin-3-yl)propyl)-4-phenylpiperidin-4-yl)-N-methylacetamide naphthalene-2-sulfonic acid [osanetant naphthalene-2-sulfonic acid Form 4]”, in data set [6], the “XRPD after drying at 40° C./75% RH” value is listed as “retained; also recorded: stable; also recorded: Form 4” and the “XRPD after drying at 40° C.” value is recorded as “retained; also recorded: Form 4”.

The record behind these values is patent publication US20240336565A1, “SOLID FORMS OF OSANETANT” (Acer Therapeutics, Inc., priority 2021, published 2024).
